Our source for the drug sensitivity score values is the supplement of paper PMC7108870.

The structures appear in SMILES notation.

Assay [1] concerns HEK293sieSTAT3(Y640F). Kind of assay: drug sensitivity score (DSS), cytotoxicity CellTox Green (DSS (dimensionless)); higher = more cytotoxic; extreme values may be limits of the assay. The conditions noted are these: 72 h; STAT3 variant: Y640F (constitutively active). The gist of the method:
(§1)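 HEK293 cells carrying a STAT3-dependent luciferase reporter and overexpressing wild-type or mutant STAT3 (20 μl at 100,000 cells/ml) were added to compounds acoustically pre-plated at 5 concentrations in 10-fold dilutions in 384-well plates. After 72 hours at 37°C and 5% CO2, CellTox Green fluorescence (485/520 nm) and then CellTiter-Glo luminescence were read on a PHERAstar FS. Values were normalised to negative and positive control wells, and a drug sensitivity score based on dose-response curve area was computed in Breeze. Each value comes from one representative of two experiments.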

Assay [2] relates to HEK293sieSTAT3(wt). The description is as above. As to conditions: 72 h; STAT3 variant: wild type. The gist of the method:
as §1

The test system of assay [3] is HEK293sieSTAT3(Y640F). Kind of assay: drug sensitivity score (DSS), viability CellTiter-Glo (DSS (dimensionless)); higher = more growth inhibition; extreme values may be limits of the assay. As to conditions: 72 h; STAT3 variant: Y640F (constitutively active). The gist of the method:
as §1

Assay [4] deals with HEK293sieSTAT3(wt). The description is as above. As to conditions: 72 h; STAT3 variant: wild type. The gist of the method:
as §1

Consider `Cn1ncc(Cl)c1-c1cc(C(=O)N[C@H](CN)Cc2ccc(F)c(F)c2)oc1Cl` [Uprosertib] (top concentration tested 10000 nM), for which the drug sensitivity score came out at 0 in the assay on HEK293sieSTAT3(Y640F) [1], 0 in the assay with HEK293sieSTAT3(wt) [2], 12.7 with HEK293sieSTAT3(Y640F) [3] and 15.3 with HEK293sieSTAT3(wt) [4].

Turning to `Oc1ncc(N(CCCl)CCCl)c(O)n1` [Uramustine] (top concentration tested 10000 nM), the drug sensitivity score was 0 in the assay on HEK293sieSTAT3(Y640F) [1], 0 in the assay with HEK293sieSTAT3(wt) [2], 0.79 in the assay with HEK293sieSTAT3(Y640F) [3] and 0.26 in the assay on HEK293sieSTAT3(wt) [4].

On to `CS(=O)(=O)c1ccc(-c2cnc(N)c(C(=O)Nc3ccccc3)n2)cc1` [VE-821] (top concentration tested 10000 nM), for which the drug sensitivity score is 0 in the assay on HEK293sieSTAT3(Y640F) [1], 0 in the assay with HEK293sieSTAT3(wt) [2], 2.27 with HEK293sieSTAT3(Y640F) [3] and 2.94 in the assay with HEK293sieSTAT3(wt) [4].

As to `O=C(O)CC1CC(c2ccccc2)=NO1` (configuration not stated) [VGX-1027] (top concentration tested 10000 nM), the drug sensitivity score in the assay on HEK293sieSTAT3(Y640F) [1] stood at 0; with HEK293sieSTAT3(wt) [2], 0; in the assay with HEK293sieSTAT3(Y640F) [3], 3.98; in the assay on HEK293sieSTAT3(wt) [4], 1.07.

Consider `CNC(=O)c1ccccc1Nc1cc(Nc2ccc(N3CCOCC3)cc2OC)ncc1C(F)(F)F` [VS-4718] (top concentration tested 10000 nM), for which the drug sensitivity score in the assay with HEK293sieSTAT3(Y640F) [1] was determined as 0; in the assay on HEK293sieSTAT3(wt) [2] it was 0.44; with HEK293sieSTAT3(Y640F) [3] it was 8.98; in the assay with HEK293sieSTAT3(wt) [4], 7.27.

As to `O=c1ncn2nc(Sc3ccc(F)cc3F)ccc2c1-c1c(Cl)cccc1Cl` [VX 745] (top concentration tested 10000 nM), the drug sensitivity score in the assay with HEK293sieSTAT3(Y640F) [1] is 0; with HEK293sieSTAT3(wt) [2] it was 0; with HEK293sieSTAT3(Y640F) [3] it was 4.64; in the assay on HEK293sieSTAT3(wt) [4], 2.43.

On to `CCCC(CCC)C(=O)O` [Valproic acid] (top concentration tested 1000000 nM), for which the drug sensitivity score in the assay on HEK293sieSTAT3(Y640F) [1] worked out at 0; in the assay with HEK293sieSTAT3(wt) [2], 0; in the assay on HEK293sieSTAT3(Y640F) [3], 3.24; in the assay on HEK293sieSTAT3(wt) [4], 3.15.

`CCCCC(=O)OCC(=O)[C@]1(O)Cc2c(O)c3c(c(O)c2[C@@H](O[C@H]2C[C@H](NC(=O)C(F)(F)F)[C@H](O)[C@H](C)O2)C1)C(=O)c1c(OC)cccc1C3=O` [Valrubicin] (top concentration tested 5000 nM): the drug sensitivity score in the assay with HEK293sieSTAT3(Y640F) [1] came out at 0; in the assay on HEK293sieSTAT3(wt) [2] it was 0.89; with HEK293sieSTAT3(Y640F) [3], 21.9; in the assay with HEK293sieSTAT3(wt) [4] it was 22.8.

Regarding `COc1cc2/c(=N/c3ccc(Br)cc3F)nc[nH]c2cc1OCC1CCN(C)CC1` [Vandetanib] (top concentration tested 1000 nM), the drug sensitivity score with HEK293sieSTAT3(Y640F) [1] came out at 0; in the assay on HEK293sieSTAT3(wt) [2] it was 0; in the assay on HEK293sieSTAT3(Y640F) [3], 2.31; in the assay with HEK293sieSTAT3(wt) [4], 4.73.

On to `CCc1c(C(=O)C(N)=O)c2c(OCC(=O)O)cccc2n1Cc1ccccc1` [Varespladib] (top concentration tested 10000 nM), for which the drug sensitivity score stood at 0 in the assay on HEK293sieSTAT3(Y640F) [1], 0 in the assay with HEK293sieSTAT3(wt) [2], 3.29 in the assay on HEK293sieSTAT3(Y640F) [3] and 0 with HEK293sieSTAT3(wt) [4].

Consider `C[C@@H]1COC(Nc2ccc3ncnc(Nc4ccc(OCc5nccs5)c(Cl)c4)c3c2)=N1` [Varlitinib] (top concentration tested 10000 nM), for which the drug sensitivity score with HEK293sieSTAT3(Y640F) [1] amounted to 0; in the assay with HEK293sieSTAT3(wt) [2] it was 0; in the assay on HEK293sieSTAT3(Y640F) [3], 0.4; in the assay on HEK293sieSTAT3(wt) [4], 0.

As for `Clc1ccc(Nc2nnc(Cc3ccncc3)c3ccccc23)cc1` [Vatalanib] (top concentration tested 10000 nM), the drug sensitivity score in the assay with HEK293sieSTAT3(Y640F) [1] was found to be 0; in the assay with HEK293sieSTAT3(wt) [2] it was 0; in the assay on HEK293sieSTAT3(Y640F) [3], 0.9; in the assay on HEK293sieSTAT3(wt) [4], 1.89.

With `C[C@]1(c2nc3c(C(N)=O)cccc3[nH]2)CCCN1` [Veliparib] (top concentration tested 10000 nM), the drug sensitivity score in the assay on HEK293sieSTAT3(Y640F) [1] came to 0; with HEK293sieSTAT3(wt) [2] it was 0.43; with HEK293sieSTAT3(Y640F) [3], 0; in the assay on HEK293sieSTAT3(wt) [4] it was 2.28.

On to `CCCS(=O)(=O)Nc1ccc(F)c(C(=O)c2c[nH]c3ncc(-c4ccc(Cl)cc4)cc23)c1F` [Vemurafenib] (top concentration tested 10000 nM), for which the drug sensitivity score in the assay with HEK293sieSTAT3(Y640F) [1] amounted to 3.47; with HEK293sieSTAT3(wt) [2], 4.84; with HEK293sieSTAT3(Y640F) [3], 0; in the assay on HEK293sieSTAT3(wt) [4], 1.57.

Regarding `CC1(C)CCC(CN2CCN(c3ccc(C(=O)NS(=O)(=O)c4ccc(NCC5CCOCC5)c([N+](=O)[O-])c4)c(Oc4cnc5[nH]ccc5c4)c3)CC2)=C(c2ccc(Cl)cc2)C1` [Venetoclax] (top concentration tested 1000 nM), the drug sensitivity score in the assay with HEK293sieSTAT3(Y640F) [1], with HEK293sieSTAT3(wt) [2], in the assay on HEK293sieSTAT3(Y640F) [3] and in the assay with HEK293sieSTAT3(wt) [4] was 0 throughout.

As to `O=C(/C=C\n1cnc(-c2cc(C(F)(F)F)cc(C(F)(F)F)c2)n1)NNc1ccccn1` [Verdinexor] (top concentration tested 1000 nM), the drug sensitivity score amounted to 5.2 in the assay on HEK293sieSTAT3(Y640F) [1], 10.5 with HEK293sieSTAT3(wt) [2], 15.5 in the assay on HEK293sieSTAT3(Y640F) [3] and 17.4 in the assay on HEK293sieSTAT3(wt) [4].

Regarding `CC[C@]1(O)C[C@@H]2CN(CCc3c([nH]c4ccccc34)[C@@](C(=O)OC)(c3cc4c(cc3OC)N(C)[C@H]3[C@@](O)(C(=O)OC)[C@H](OC(C)=O)[C@]5(CC)C=CCN6CC[C@]43[C@@H]65)C2)C1` [Vinblastine] (top concentration tested 1000 nM), the drug sensitivity score in the assay on HEK293sieSTAT3(Y640F) [1] amounted to 5.1; in the assay with HEK293sieSTAT3(wt) [2], 19.4; in the assay on HEK293sieSTAT3(Y640F) [3], 19.8; in the assay on HEK293sieSTAT3(wt) [4], 21.8.

For the compound `CC[C@]1(O)C[C@H]2CN(CCc3c([nH]c4ccccc34)[C@@](C(=O)OC)(c3cc4c(cc3OC)N(C=O)[C@H]3[C@@](O)(C(=O)OC)[C@H](OC(C)=O)[C@]5(CC)C=CCN6CC[C@]43[C@@H]65)C2)C1` [Vincristine] (top concentration tested 1000 nM), the drug sensitivity score was 6.72 in the assay on HEK293sieSTAT3(Y640F) [1], 16.2 in the assay with HEK293sieSTAT3(wt) [2], 21.2 with HEK293sieSTAT3(Y640F) [3] and 23.6 with HEK293sieSTAT3(wt) [4].
